Laboratory results: patent US20230391772A1, “METHODS AND COMPOSITIONS FOR TARGETED PROTEIN DEGRADATION” (Ranok Therapeutics (Hangzhou) Co. Ltd., priority 2020, published 2023)

Assays:
HSP90a protein [1] = target: T1, HSP90a protein (Homo sapiens, UniProt P07900); experiment: HSP90α-binding fluorescent polarization (FP) assay, FITC-geldanamycin probe; details: FP competition with FITC-geldanamycin, 5 nM, 120 min at 25° C.
T1 construct: purchased BPS Bioscience 50298
Description: HSP90α-Binding Fluorescent Polarization (FP) Assay
Binding of test compounds to HSP90a protein was measured by fluorescent polarization (FP) using the HSP90a (N-terminal) Assay Kit (BPS Bioscience, #50298), following the manufacturer's instructions, except as noted. Fluorescently labeled HSP90-binding compounds, either the provided FITC-geldanamycin (5 nM final concentration) or RNK04010, a triazolone-based HSP90 binding small molecule labeled with BODIPY through a piperizine-phenyl linker (5 nM final concentration) were employed. A 2.5-fold serial dilution of each test compound ranging from 20 μM to 5.2 nM was assayed for binding to HSP90a. After the final step of adding HSP90a protein to each assay well, plates were mixed by brief shaking, incubated at 25° C. for 120 min for FITC-geldanamycin or 300 min for RNK04010, and fluorescence was measured using a PerkinElmer EnVision Plate Reader.

[2] = tested on: MIA PaCa-2 human pancreatic carcinoma; experiment: MIA PaCa-2 CCK-8 proliferation assay; format: cell-based; details: Homo sapiens, MIA PaCa-2, 72 h, MIA PaCa-2 cells
Procedure, shortened: (§1)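 Compounds were tested as a 3-fold series from 20 μM down to 1.02 nM in CCK-8 absorbance assays. The lines used were NCI-H23 and NCI-H358, each with 1 KRAS(G12C) copy, and MIA PaCa-2 with 2 copies. Inhibition was derived relative to DMSO controls, with a no-cell blank subtracted.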

KRAS(G12C) [3] = target: T2, KRAS(G12C) (Homo sapiens, UniProt P01116, G12C); experiment: KRAS(G12C) Western blot protein degradation assay in MIA PaCa-2 cells; format: cell-based; design: host or cells: LU65A; details: 48 hr
T2 sequence (P01116 1-188 isoform P01116-2 G12C): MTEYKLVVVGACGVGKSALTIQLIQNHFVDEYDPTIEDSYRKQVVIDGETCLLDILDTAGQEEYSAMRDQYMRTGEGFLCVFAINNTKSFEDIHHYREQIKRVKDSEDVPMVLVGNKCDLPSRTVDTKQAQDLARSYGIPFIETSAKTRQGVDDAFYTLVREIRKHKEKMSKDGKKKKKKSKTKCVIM
Description: The following cancer cell lines were employed: BT-474 human breast carcinoma (ATCC, #HTB-20); MIA PaCa-2 human pancreatic carcinoma [2 copies KRAS(G12C)](ATCC, #CRL-1420); NCI-H23 human non-small cell lung cancer [1 copy KRAS(G12C)](ATCC, #CRL-5800); NCI-H358 human non-small cell lung cancer [1 copy KRAS(G12C)](ATCC, #CRL-5807); LU65A human lung carcinoma (Pharmaron, Beijing, China). Cell lines were cultured essentially according to ATCC and Pharmaron recommendations.
KRAS(G12C) Western Blot Protein Degradation Assay
The MIA PaCa-2 human pancreatic carcinoma cell line and LU65A human lung cancer cell line, which expresses KRAS(G12C), were seeded in 6- or 12-well tissue culture plates, and after 1 hr, test compounds were added at various concentrations and incubated at 37° C./5% CO2 for 48 hr (MIA Paca-2) and 6 hr (LU65A) respectively. Cells were then washed with cold PBS, aspirated and cold RIPA buffer containing a protease/phosphatase inhibitor cocktail was added to lyse cells. After centrifugation, the total protein concentrations of cell lysates were determined using the BCA protein assay. Samples were normalized for equivalent protein concentrations, 5×SDS-PAGE loading buffer added and denatured at 100° C. for 10 min. 20 μl of each sample/well was loaded on a SDS-PAGE gel and electrophoresed for 20 min at 80 V, then 120 V for 1.5 hr. Gels were then electroblotted to nitrocellulose membranes using a wet-transfer method at 250 mA for 2.5 hr. Membranes were incubated with blocking buffer for 1 hr and washed 3 times with TBST for 5 min. Membranes were then incubated with anti-KRAS (Sigma-Aldrich, #SAB1404011) and anti-β-Actin monoclonal antibodies (Cell Signaling Technology, #3700) diluted in blocking buffer at 4° C. overnight per the manufacturer's recommendations. After washing 3 times, blots were incubated with appropriately labeled secondary antibodies for 1 hr at room temperature and washed again. Fluorescence imaging and quantitation was performed using a LI-COR Odyssey. Results was analyzed using GraphPad Prism 7 software. Compound degradation of was determined by the following equation and DC50 values (the concentration at which 50% of the maximal degradation of KRAS occurs) calculated using GraphPad Prism 7 software:
% Inhibition=100−(D−B)/(S−B)*100%. • S: Fluorescence intensity of cells with antibody • D: Fluorescence intensity of compound-treated cells with antibody • B: Fluorescence intensity of cells without antibody

[4] = tested on: NCI-H358 human non-small cell lung cancer; experiment: NCI-H358 CCK-8 proliferation assay; format: cell-based; details: NCI-H358 cells, 72 hr
Procedure, shortened: as §1

HSP90a protein [5] = target: T1, HSP90a protein; experiment: HSP90α-binding fluorescent polarization (FP) assay, BODIPY-labeled RNK04010 probe; details: FP competition with RNK04010 (BODIPY-labeled), 5 nM, 300 min at 25° C.
Procedure, shortened: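 Test compounds (2.5-fold serial dilution, 20 μM to 5.2 nM) competed with a fluorescent tracer for N-terminal HSP90a, with fluorescence polarization as the read-out. FITC-geldanamycin tracer was used at 5 nM final with 120 min incubation at 25° C; BODIPY-labeled RNK04010 was used at 5 nM final with 300 min incubation.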

[6] = tested on: NCI-H23 human non-small cell lung cancer; experiment: NCI-H23 CCK-8 proliferation assay; format: cell-based; details: NCI-H23 cells, 72 hr
Procedure, shortened: as §1

KRAS(G12C) [7] = target: T2, KRAS(G12C); experiment: KRAS(G12C)/SOS1 homogeneous time-resolved fluorescence (HTRF) assay; design: purchased Cisbio 63ADK000CB16PEG; details: absence of GTP, 4° C. for 3 hr, read-out: KRAS (G12C) binding
Procedure, shortened: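 HTRF kit measuring compound-induced block of KRAS(G12C)-SOS1 interaction without GTP. Compounds tested as 3-fold serial dilutions down to 1.02 nM, incubated with reaction components 3 h at 4 °C in sealed plates before fluorescence read.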

In the case of C=C(F)C(=O)N1CCN(c2nc(OC[C@@H]3CCN(CCCOCCC(=O)NCc4ccc(-n5c(O)nnc5-c5cc(C(C)C)c(O)cc5O)cc4)C3)nc3c2CCN(c2cccc4cccc(Cl)c24)C3)C[C@@H]1CC#N [Compound 170], the IC50 (HSP90a protein [1]) is reported as 0.1 to 1 µM and the EC50 [2] is reported as greater than 1 µM.
Compound C=C(F)C(=O)N1CCN(c2nc(OC[C@@H]3CCN(C(=O)c4cc(C(C)C)c(O)cc4O)C3)nc3c2CCN(c2cccc4cccc(Cl)c24)C3)C[C@@H]1CC#N [Compound 171, 2-((S)-4-(7-(8-chloronaphthalen-1-yl)-2-(((R)-1-(2,4-dihydroxy-5-isopropylbenzoyl)pyrrolidin-3-yl)methoxy)-5,6,7,8-tetrahydropyrido[3,4-d]pyrimidin-4-yl)-1-(2-fluoroacryloyl)piperazin-2-yl)acetonitrile] has an IC50 (HSP90a protein [1]) greater than 1 µM and an EC50 [2] greater than 1 µM.
With C=CC(=O)N1CCN(c2nc(NCCC(=O)N3CCC(Cc4ccc(CN(C)Cc5ccc(-n6c(C(=O)NCC(F)(F)F)nnc6-c6cc(C(C)C)c(O)cc6O)cc5)cc4)CC3)nc3c2CCN(c2cc(O)cc4ccccc24)C3)CC1 [Compound 16, 4-(4-(((4-((1-(3-((4-(4-acryloylpiperazin-1-yl)-7-(3-hydroxynaphthalen-1-yl)-5,6,7,8-tetrahydropyrido[3,4-d]pyrimidin-2-yl)amino)propanoyl)piperidin-4-yl)methyl)benzyl)(methyl)amino)methyl)phenyl)-5-(2,4-dihydroxy-5-isopropylphenyl)-N-(2,2,2-trifluoroethyl)-4H-1,2,4-triazole-3-carboxamide, trifluoroacetic acid] the inhibition at 0.1562 µM (KRAS(G12C) [3]; 156.2 nM) was less than 33%, the inhibition at 0.3125 µM (KRAS(G12C) [3]; 312.5 nM) was less than 33% and the inhibition at 0.625 µM (KRAS(G12C) [3]; 625 nM) was less than 33%. The inhibition at 1.25 µM (KRAS(G12C) [3]; 1250 nM) was less than 33%, the inhibition at 2.5 µM (KRAS(G12C) [3]; 2500 nM) was less than 33% and the inhibition at 5 µM (KRAS(G12C) [3]; 5000 nM) was less than 33%. For the same compound, the inhibition at 10 µM (KRAS(G12C) [3]; 10,000 nM) was less than 33%, the EC50 [4] was 0.1 to 1 µM and the IC50 (HSP90a protein [5]) was greater than 1 µM. The EC50 [6] was 0.1 to 1 µM, the IC50 (KRAS(G12C) [7]) was greater than 1 µM and the EC50 [2] was less than 0.1 µM.
With C=CC(=O)N1CCN(c2nc(NCCC(=O)N3CCC(CN4CCN(Cc5ccc(-n6c(O)nnc6-c6cc(C(C)C)c(O)cc6O)cc5)CC4)CC3)nc3c2CCN(c2cc(O)cc4ccccc24)C3)CC1 [Compound 14, 1-(4-(2-((3-(4-((4-(4-(3-(2,4-dihydroxy-5-isopropylphenyl)-5-hydroxy-4H-1,2,4-triazol-4-yl)benzyl)piperazin-1-yl)methyl)piperidin-1-yl)-3-oxopropyl)amino)-7-(3-hydroxynaphthalen-1-yl)-5,6,7,8-tetrahydropyrido[3,4-d]pyrimidin-4-yl)piperazin-1-yl)prop-2-en-1-one, trifluoroacetic acid] the EC50 [4] was 0.1 to 1 µM, the IC50 (HSP90a protein [5]) was less than 0.1 µM and the EC50 [6] was greater than 1 µM. It also gave an IC50 (KRAS(G12C) [7]) greater than 1 µM and an EC50 [2] greater than 1 µM.
With C=C(F)C(=O)N1CCN(c2nc(OC[C@@H]3CCN(C(=O)C4CCN(Cc5ccc(-n6c(O)nnc6-c6cc(CC)c(O)cc6O)cc5)CC4)C3)nc3c2CCN(c2cccc4cccc(Cl)c24)C3)C[C@@H]1CC#N [Compound 167, 2-((S)-4-(7-(8-chloronaphthalen-1-yl)-2-(((R)-1-(1-(4-(3-(5-ethyl-2,4-dihydroxyphenyl)-5-hydroxy-4H-1,2,4-triazol-4-yl)benzyl)piperidine-4-carbonyl)pyrrolidin-3-yl)methoxy)-5,6,7,8-tetrahydropyrido[3,4-d]pyrimidin-4-yl)-1-(2-fluoroacryloyl)piperazin-2-yl)acetonitrile] the IC50 (HSP90a protein [1]) was less than 0.1 µM and the EC50 [2] was 0.1 to 1 µM.
For C=CC(=O)N1CCN(c2nc(NCCC(=O)NCCc3ccc(CN4CCC(Cc5ccc(-n6c(C(=O)NCC(F)(F)F)nnc6-c6cc(C(C)C)c(O)cc6O)cc5)CC4)cc3)nc3c2CCN(c2cc(O)cc4ccccc24)C3)CC1 [Compound 24, 4-(4-((1-(4-(2-(3-((4-(4-acryloylpiperazin-1-yl)-7-(3-hydroxynaphthalen-1-yl)-5,6,7,8-tetrahydropyrido[3,4-d]pyrimidin-2-yl)amino)propanamido)ethyl)benzyl)piperidin-4-yl)methyl)phenyl)-5-(2,4-dihydroxy-5-isopropylphenyl)-N-(2,2,2-trifluoroethyl)-4H-1,2,4-triazole-3-carboxamide, trifluoroacetic acid], the EC50 [4] was 0.1 to 1 µM, the IC50 (HSP90a protein [5]) was 0.1 to 1 µM and the EC50 [6] was greater than 1 µM. The IC50 (KRAS(G12C) [7]) was greater than 1 µM and the EC50 [2] was 0.1 to 1 µM.
CC(C)c1cc(-c2nnc(O)n2-c2ccc(CN3CCC(C(=O)N4CC[C@@H](COc5nc6c(c(N7CCN(C(N)=O)[C@@H](CC#N)C7)n5)CCN(c5cccc7cccc(Cl)c57)C6)C4)CC3)cc2)c(O)cc1O [Compound 169, (S)-4-(7-(8-chloronaphthalen-1-yl)-2-(((R)-1-(1-(4-(3-(2,4-dihydroxy-5-isopropylphenyl)-5-hydroxy-4H-1,2,4-triazol-4-yl)benzyl)piperidine-4-carbonyl)pyrrolidin-3-yl)methoxy)-5,6,7,8-tetrahydropyrido[3,4-d]pyrimidin-4-yl)-2-(cyanomethyl)piperazine-1-carboxamide] was tested, and the IC50 (HSP90a protein [1]) was less than 0.1 µM and the EC50 [2] was 0.1 to 1 µM.
For C=C(F)C(=O)N1CCN(c2nc(OC[C@@H]3CCN(C(=O)C4CCN(Cc5ccc(-n6c(C(N)=O)nnc6-c6cc(C(C)C)c(O)cc6O)cc5)CC4)C3)nc3c2CCN(c2cccc4cccc(Cl)c24)C3)C[C@@H]1CC#N [Compound 166, 4-(4-((4-((R)-3-(((7-(8-chloronaphthalen-1-yl)-4-((S)-3-(cyanomethyl)-4-(2-fluoroacryloyl)piperazin-1-yl)-5,6,7,8-tetrahydropyrido[3,4-d]pyrimidin-2-yl)oxy)methyl)pyrrolidine-1-carbonyl)piperidin-1-yl)methyl)phenyl)-5-(2,4-dihydroxy-5-isopropylphenyl)-4H-1,2,4-triazole-3-carboxamide], the IC50 (HSP90a protein [1]) was 0.1 to 1 µM and the EC50 [2] was less than 0.1 µM.
C=C(F)C(=O)N1CCN(c2nc(OC[C@@H]3CCN(C(=O)c4ccc5c(c4)CN(C(=O)c4cc(C(C)C)c(O)cc4O)C5)C3)nc3c2CCN(c2cccc4cccc(Cl)c24)C3)C[C@@H]1CC#N [Compound 165, 2-((S)-4-(7-(8-chloronaphthalen-1-yl)-2-(((R)-1-(2-(2,4-dihydroxy-5-isopropylbenzoyl)isoindoline-5-carbonyl)pyrrolidin-3-yl)methoxy)-5,6,7,8-tetrahydropyrido[3,4-d]pyrimidin-4-yl)-1-(2-fluoroacryloyl)piperazin-2-yl)acetonitrile] was tested, and the IC50 (HSP90a protein [1]) was 0.1 to 1 µM and the EC50 [2] was greater than 1 µM.
